Molecular target: bsLDH (Geobacillus stearothermophilus, UniProt P00344)
Type: binding

Chain of bsLDH (P00344 whole entry): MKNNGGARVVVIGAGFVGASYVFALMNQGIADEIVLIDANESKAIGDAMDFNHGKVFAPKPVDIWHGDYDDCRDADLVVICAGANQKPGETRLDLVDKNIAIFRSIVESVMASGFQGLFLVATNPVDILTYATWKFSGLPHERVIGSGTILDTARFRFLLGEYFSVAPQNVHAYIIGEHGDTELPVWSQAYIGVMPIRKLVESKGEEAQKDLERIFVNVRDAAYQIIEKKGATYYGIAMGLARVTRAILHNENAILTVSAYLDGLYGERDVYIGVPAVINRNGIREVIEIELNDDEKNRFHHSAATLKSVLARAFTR

Kd: 1300 ± 700 nM
Structure (SMILES): NC(=O)C1=CN([C@@H]2O[C@H](COP(=O)(O)OP(=O)(O)OC[C@H]3O[C@@H](n4cnc5c(N)ncnc54)[C@H](O)[C@@H]3O)[C@@H](O)[C@H]2O)C=CC1 [NADH]

— article PMC5235360 (Biochemistry, 2016)
